Results: PubChem BioAssay AID248 (DTP/NCI, 2004)
Values joined by “and” are separate entries in the source; they are usually repeats but may differ in a detail not shown here. Equal entries are not always repeated. Inconclusive results and toxic doses are left out. No stated cut-off is given here; in the data, active means T/C of 150% or more; inactive means T/C below 125%.

System: L1210 leukemia ip in BDF1 mice, survival T/C
Test: NCI In Vivo Anticancer Drug Screen. Data for tumor model L1210 Leukemia (intraperitoneal) in B6D2F1 (BDF1) mice
Details: endpoint: mean survival time, higher = longer survival
Procedure, shortened: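 Transplanted-tumor mice were given test agent; controls received vehicle only. Survival readings from the two groups were divided (treated over control).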

[1] = dose: 100.0 mg/kg/injection, schedule: Q01DX009 (ip), vehicle: Klucel (hydroxypropylcellulose) (HPC)
[2] = dose: 100.0 mg/kg/injection, schedule: Q04DX003 (ip), vehicle: Klucel (hydroxypropylcellulose) (HPC)
[3] = dose: 200.0 mg/kg/injection, schedule: Q01DX009 (ip), vehicle: Klucel (hydroxypropylcellulose) (HPC)
[4] = dose: 200.0 mg/kg/injection, schedule: Q04DX003 (ip), vehicle: Klucel (hydroxypropylcellulose) (HPC)
[5] = dose: 400.0 mg/kg/injection, schedule: Q01DX009 (ip), vehicle: Klucel (hydroxypropylcellulose) (HPC)
[6] = dose: 400.0 mg/kg/injection, schedule: Q04DX003 (ip), vehicle: Klucel (hydroxypropylcellulose) (HPC)
[7] = dose: 75.0 mg/kg/injection, schedule: Q01DX001 (ip), vehicle: saline
[8] = dose: 150.0 mg/kg/injection, schedule: Q01DX001 (ip), vehicle: saline
[9] = dose: 100.0 mg/kg/injection, schedule: Q01DX001 (ip), vehicle: saline
[10] = dose: 200.0 mg/kg/injection, schedule: Q01DX001 (ip), vehicle: saline
[11] = dose: 400.0 mg/kg/injection, schedule: Q01DX001 (ip), vehicle: saline
[12] = dose: 100.0 mg/kg/injection, schedule: Q01DX009 (ip), vehicle: saline
[13] = dose: 100.0 mg/kg/injection, schedule: Q04DX003 (ip), vehicle: saline
[14] = dose: 200.0 mg/kg/injection, schedule: Q01DX009 (ip), vehicle: saline
[15] = dose: 200.0 mg/kg/injection, schedule: Q04DX003 (ip), vehicle: saline

Measured: T/C

c1ccc(N=Nc2ccnnc2)cc1
inactive: dose: 50.0 mg/kg/injection, schedule: Q04DX002 (ip), vehicle: saline with Tween-80 102 % of control | dose: 100.0 mg/kg/injection, schedule: Q04DX002 (ip), vehicle: saline with Tween-80 91 % of control | dose: 200.0 mg/kg/injection, schedule: Q04DX002 (ip), vehicle: saline with Tween-80 105 % of control

[N-]=[N+]=C1C=CC=C1C(=O)O
inactive: dose: 12.5 mg/kg/injection, schedule: Q01DX009 (ip), vehicle: Klucel (hydroxypropylcellulose) (HPC) 98 % of control | dose: 25.0 mg/kg/injection, schedule: Q01DX009 (ip), vehicle: Klucel (hydroxypropylcellulose) (HPC) 103 % of control | dose: 50.0 mg/kg/injection, schedule: Q01DX009 (ip), vehicle: Klucel (hydroxypropylcellulose) (HPC) 97 % of control | dose: 100.0 mg/kg/injection, schedule: Q04DX003 (ip), vehicle: acetone 94 % of control | dose: 200.0 mg/kg/injection, schedule: Q04DX003 (ip), vehicle: acetone 93 % of control | dose: 400.0 mg/kg/injection, schedule: Q04DX003 (ip), vehicle: acetone 91 % of control

COc1ccccc1NC(=O)Oc1ccc(-c2ccccc2)cc1Br
inactive: [1] 92 % of control | [2] 97 % of control | [3] 97 % of control | [4] 95 % of control | [5] 101 % of control | [6] 93 % of control

C=C(C)C1(CCCCC)C(=O)NC(=S)NC1=O
inactive: [7] 100 % of control | [8] 102 % of control | dose: 300.0 mg/kg/injection, schedule: Q01DX001 (ip), vehicle: saline 95 % of control

Cc1ncc(CCO)c(CO)c1O
inactive: [9] 104 % of control | [10] 101 % of control | [11] 106 % of control

C[N+]1(C2CCC3CCC2C3O)CCOCC1 (configuration not stated)
inactive: dose: 50.0 mg/kg/injection, schedule: Q01DX009 (ip), vehicle: saline 106 % of control and 124 % of control | [12] 100 % of control | [13] 103 % of control and 101 % of control | [14] 98 % of control | [15] 97 % of control and 105 % of control

CN(C)C(=S)N(C(=S)N(C)C)c1ccccc1
inactive: [9] 95 % of control | [10] 103 % of control | [11] 108 % of control

COc1ccccc1/C=N\NC(=O)C1CC1
inactive: dose: 15.0 mg/kg/injection, schedule: Q01DX Z (ip), vehicle: carboxymethylcellulose (CMC) 102 % of control | dose: 30.0 mg/kg/injection, schedule: Q01DX Z (ip), vehicle: carboxymethylcellulose (CMC) 97 % of control | dose: 60.0 mg/kg/injection, schedule: Q01DX Z (ip), vehicle: carboxymethylcellulose (CMC) 97 % of control and 101 % of control | dose: 120.0 mg/kg/injection, schedule: Q01DX Z (ip), vehicle: carboxymethylcellulose (CMC) 101 % of control and 102 % of control | dose: 240.0 mg/kg/injection, schedule: Q01DX Z (ip), vehicle: carboxymethylcellulose (CMC) 98 % of control | dose: 480.0 mg/kg/injection, schedule: Q01DX Z (ip), vehicle: carboxymethylcellulose (CMC) 101 % of control | dose: 480.0 mg/kg/injection, schedule: Q01DX Z (oral), vehicle: carboxymethylcellulose (CMC) 106 % of control | dose: 960.0 mg/kg/injection, schedule: Q01DX Z (oral), vehicle: carboxymethylcellulose (CMC) 93 % of control

CCN(CC)Cc1ccccc1COC(=O)c1cccc(C)c1
inactive: dose: 50.0 mg/kg/injection, schedule: Q04DX002 (ip), vehicle: saline 93 % of control | dose: 100.0 mg/kg/injection, schedule: Q04DX002 (ip), vehicle: saline 90 % of control | dose: 200.0 mg/kg/injection, schedule: Q04DX002 (ip), vehicle: saline 93 % of control

COc1ccc2c(c1)CN(S(=O)(=O)c1ccc(C)cc1)c1ccccc1C2=O
inactive: [12] 89 % of control | [14] 96 % of control | dose: 400.0 mg/kg/injection, schedule: Q01DX009 (ip), vehicle: saline 89 % of control

COc1ccc2c(c1OC)CN(C)CCc1cc3c(cc1C(=O)C2)OCO3
inactive: dose: 100.0 mg/kg/injection, schedule: Q01DX001 (ip), vehicle: carboxymethylcellulose (CMC) 96 % of control | dose: 200.0 mg/kg/injection, schedule: Q01DX001 (ip), vehicle: carboxymethylcellulose (CMC) 96 % of control | dose: 400.0 mg/kg/injection, schedule: Q01DX001 (ip), vehicle: carboxymethylcellulose (CMC) 100 % of control

S=C=NCCc1ccccc1
inactive: dose: 12.5 mg/kg/injection, schedule: Q01DX009 (ip), vehicle: saline with Tween-80 101 % of control | dose: 25.0 mg/kg/injection, schedule: Q01DX009 (ip), vehicle: saline with Tween-80 104 % of control | dose: 50.0 mg/kg/injection, schedule: Q01DX009 (ip), vehicle: saline with Tween-80 108 % of control | dose: 100.0 mg/kg/injection, schedule: Q01DX009 (ip), vehicle: saline with Tween-80 87 % of control

Cn1c(NCC[N+](C)(C)C)nc2ncncc21
inactive: dose: 15.0 mg/kg/injection, schedule: Q01DX001 (ip), vehicle: saline 90 % of control | dose: 30.0 mg/kg/injection, schedule: Q01DX001 (ip), vehicle: saline 93 % of control | dose: 60.0 mg/kg/injection, schedule: Q01DX001 (ip), vehicle: saline 95 % of control

Cc1ccc(N2C(N)=NC(N)=NC2(C)C)cc1
inactive: dose: 12.5 mg/kg/injection, schedule: Q01DX001 (ip), vehicle: saline 100 % of control | dose: 25.0 mg/kg/injection, schedule: Q01DX001 (ip), vehicle: saline 100 % of control

O=S(=O)(CCCBr)NC1CCCCC1
inactive: [1] 96 % of control | [3] 91 % of control | [5] 93 % of control

CCCC1=CN(Cc2ccccc2)c2ccccc2C1
inactive: [9] 96 % of control | [13] 97 % of control | [10] 96 % of control | [15] 97 % of control | [11] 97 % of control | dose: 400.0 mg/kg/injection, schedule: Q04DX003 (ip), vehicle: saline 93 % of control

c1ccc(N=P(c2ccccc2)(c2ccccc2)c2ccccc2)cc1
inactive: [9] 94 % of control | [10] 94 % of control

O=[N+]([O-])c1ccccc1S(=O)(=O)N1CCN(S(=O)(=O)c2ccccc2[N+](=O)[O-])C1
inactive: [1] 90 % of control | [2] 96 % of control | [3] 93 % of control | [4] 96 % of control | [5] 93 % of control | [6] 100 % of control

CN(C)c1ccc2nc3ccc(=O)cc-3sc2c1
inactive: dose: 50.0 mg/kg/injection, schedule: Q04DX002 (ip), vehicle: Klucel (hydroxypropylcellulose) (HPC) 88 % of control | dose: 100.0 mg/kg/injection, schedule: Q04DX002 (ip), vehicle: Klucel (hydroxypropylcellulose) (HPC) 95 % of control | dose: 200.0 mg/kg/injection, schedule: Q04DX002 (ip), vehicle: Klucel (hydroxypropylcellulose) (HPC) 92 % of control | dose: 400.0 mg/kg/injection, schedule: Q04DX002 (ip), vehicle: Klucel (hydroxypropylcellulose) (HPC) 95 % of control

CC(=O)C1COC(O)C1C (configuration not stated)
inactive: dose: 0.15 mg/kg/injection, schedule: Q01DX009 (ip), vehicle: saline 102 % of control | dose: 0.31 mg/kg/injection, schedule: Q01DX009 (ip), vehicle: saline 100 % of control | dose: 0.62 mg/kg/injection, schedule: Q01DX009 (ip), vehicle: saline 105 % of control | dose: 1.25 mg/kg/injection, schedule: Q01DX009 (ip), vehicle: saline 107 % of control | dose: 2.5 mg/kg/injection, schedule: Q01DX009 (ip), vehicle: saline 112 % of control | dose: 5.0 mg/kg/injection, schedule: Q01DX001 (ip), vehicle: saline 101 % of control | dose: 10.0 mg/kg/injection, schedule: Q01DX001 (ip), vehicle: saline 113 % of control

Cc1cnc(C(=O)O)c(N)n1
inactive: [7] 105 % of control | [8] 93 % of control

O=C(O)CC(Br)C(=O)O (configuration not stated)
inactive: [13] 98 % of control | [15] 102 % of control
